Publication PMC4503722, “Novel Phenotypic Outcomes Identified for a Public Collection of Approved Drugs from a Publicly Accessible Panel of Assays” (PLoS ONE, 2015)
Where two headings read alike, the source gives them in different places.

Key:
[1] = target: T1, hFLT3 (Homo sapiens, UniProt P36888); assay: Cerep LANCE kinase assay hFLT3 (S1 assay 35); type: biochemical; settings: read-out: FLT3
T1 construct: purchased Cerep (LANCE kinase assay platform, contract assay)

[2] = system: NCI-H716 cells; assay: cells; type: cell-based, Human
[3] = system: HCT116 cells treated with a GSK3β inhibitor; assay: cells; type: cell-based
[4] = system: HeLa cells; assay: cells; type: cell-based; settings: HeLa, read-out: CellCycle G2/M
[5] = system: nuclear β-catenin in C2C12 cells; assay: cells; type: cell-based
[6] = target: T2, hJAK2 (Homo sapiens, UniProt O60674); assay: Cerep LANCE kinase assay hJAK2 (S1 assay 33); type: biochemical; settings: read-out: JAK2
T2 construct: purchased Cerep (LANCE kinase assay platform, contract assay)
T2 sequence (O60674 whole entry): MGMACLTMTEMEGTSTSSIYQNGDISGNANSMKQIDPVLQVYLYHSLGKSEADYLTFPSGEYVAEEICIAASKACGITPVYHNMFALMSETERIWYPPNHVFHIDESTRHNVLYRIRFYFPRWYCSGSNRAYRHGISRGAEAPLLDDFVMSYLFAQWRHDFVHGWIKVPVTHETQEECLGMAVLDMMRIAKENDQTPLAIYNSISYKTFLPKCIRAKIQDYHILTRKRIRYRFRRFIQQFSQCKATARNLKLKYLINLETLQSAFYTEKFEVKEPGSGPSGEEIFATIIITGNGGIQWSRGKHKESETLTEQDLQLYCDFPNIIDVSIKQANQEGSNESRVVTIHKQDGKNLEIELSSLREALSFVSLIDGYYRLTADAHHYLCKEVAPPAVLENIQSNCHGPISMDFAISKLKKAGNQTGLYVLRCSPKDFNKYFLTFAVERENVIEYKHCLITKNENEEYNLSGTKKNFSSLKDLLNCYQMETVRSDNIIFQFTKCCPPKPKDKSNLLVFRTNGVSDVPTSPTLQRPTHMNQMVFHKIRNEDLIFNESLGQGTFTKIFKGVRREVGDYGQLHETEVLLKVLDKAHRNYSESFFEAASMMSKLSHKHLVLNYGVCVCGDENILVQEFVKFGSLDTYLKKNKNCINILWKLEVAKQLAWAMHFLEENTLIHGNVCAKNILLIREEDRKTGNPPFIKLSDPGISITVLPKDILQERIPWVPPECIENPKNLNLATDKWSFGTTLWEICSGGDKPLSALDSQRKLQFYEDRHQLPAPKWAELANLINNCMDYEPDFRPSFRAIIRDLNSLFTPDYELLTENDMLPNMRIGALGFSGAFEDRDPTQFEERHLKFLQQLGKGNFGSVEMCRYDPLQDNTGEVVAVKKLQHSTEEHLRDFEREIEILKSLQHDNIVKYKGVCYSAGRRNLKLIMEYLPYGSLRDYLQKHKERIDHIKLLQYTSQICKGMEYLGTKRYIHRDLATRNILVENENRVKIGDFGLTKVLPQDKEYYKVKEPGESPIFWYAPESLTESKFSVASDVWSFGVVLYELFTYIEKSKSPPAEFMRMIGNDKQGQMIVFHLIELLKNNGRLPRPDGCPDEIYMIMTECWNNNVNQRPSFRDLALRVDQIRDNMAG

[7] = system: endothelial tube formation in co-cultures of ECFCs and ADSCs treated with VEGF; assay: cells; type: cell-based, human; settings: read-out: Anti-Angiogenesis
[8] = target: T3, hGSK3b (Homo sapiens, UniProt P49841); assay: Cerep LANCE kinase assay hGSK3b (S1 assay 34); type: biochemical; settings: read-out: GSK3b
T3 construct: purchased Cerep (LANCE kinase assay platform, contract assay)
T3 sequence (P49841 whole entry): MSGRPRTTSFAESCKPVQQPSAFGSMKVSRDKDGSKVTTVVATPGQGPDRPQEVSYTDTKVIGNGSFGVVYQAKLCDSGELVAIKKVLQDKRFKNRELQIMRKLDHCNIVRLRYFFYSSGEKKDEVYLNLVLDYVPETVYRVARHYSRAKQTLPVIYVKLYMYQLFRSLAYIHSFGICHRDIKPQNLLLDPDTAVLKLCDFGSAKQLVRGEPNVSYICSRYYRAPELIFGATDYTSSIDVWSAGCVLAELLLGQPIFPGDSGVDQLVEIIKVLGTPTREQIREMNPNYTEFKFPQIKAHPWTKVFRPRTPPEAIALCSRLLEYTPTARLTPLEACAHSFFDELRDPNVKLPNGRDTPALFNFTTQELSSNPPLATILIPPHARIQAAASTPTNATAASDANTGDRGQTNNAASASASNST

[9] = system: HCT116; assay: cells; type: cell-based
[10] = system: INS-1E cells; assay: cells; type: cell-based, rat
[11] = target: T4, hp70S6K1 (RPS6KB1) (Homo sapiens, UniProt P23443); assay: Cerep LANCE kinase assay hp70S6K1 (S1 assay 31); type: biochemical; settings: read-out: p70S6K1
T4 construct: purchased Cerep (LANCE kinase assay platform, contract assay)
T4 sequence (P23443 whole entry): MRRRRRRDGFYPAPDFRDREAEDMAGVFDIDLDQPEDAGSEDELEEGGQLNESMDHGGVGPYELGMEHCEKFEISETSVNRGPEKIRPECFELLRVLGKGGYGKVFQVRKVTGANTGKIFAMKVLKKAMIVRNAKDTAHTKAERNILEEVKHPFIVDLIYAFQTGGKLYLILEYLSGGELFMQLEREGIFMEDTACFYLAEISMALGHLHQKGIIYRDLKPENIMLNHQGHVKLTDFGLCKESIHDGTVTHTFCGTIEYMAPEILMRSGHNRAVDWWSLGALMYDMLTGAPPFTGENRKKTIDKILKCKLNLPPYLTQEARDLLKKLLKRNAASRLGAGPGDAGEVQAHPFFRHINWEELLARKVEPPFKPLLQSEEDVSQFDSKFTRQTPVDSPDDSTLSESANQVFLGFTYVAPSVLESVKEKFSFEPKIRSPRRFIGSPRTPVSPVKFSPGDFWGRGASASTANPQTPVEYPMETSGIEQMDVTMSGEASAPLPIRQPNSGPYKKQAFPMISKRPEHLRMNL

[12] = system: DLD-1; assay: cells; type: cell-based
[13] = target: T5, hKDR (Homo sapiens, UniProt P35968); assay: Cerep LANCE kinase assay hKDR (S1 assay 32); type: biochemical; settings: read-out: KDR
T5 construct: purchased Cerep (LANCE kinase assay platform, contract assay)
T5 sequence (P35968 20-1356): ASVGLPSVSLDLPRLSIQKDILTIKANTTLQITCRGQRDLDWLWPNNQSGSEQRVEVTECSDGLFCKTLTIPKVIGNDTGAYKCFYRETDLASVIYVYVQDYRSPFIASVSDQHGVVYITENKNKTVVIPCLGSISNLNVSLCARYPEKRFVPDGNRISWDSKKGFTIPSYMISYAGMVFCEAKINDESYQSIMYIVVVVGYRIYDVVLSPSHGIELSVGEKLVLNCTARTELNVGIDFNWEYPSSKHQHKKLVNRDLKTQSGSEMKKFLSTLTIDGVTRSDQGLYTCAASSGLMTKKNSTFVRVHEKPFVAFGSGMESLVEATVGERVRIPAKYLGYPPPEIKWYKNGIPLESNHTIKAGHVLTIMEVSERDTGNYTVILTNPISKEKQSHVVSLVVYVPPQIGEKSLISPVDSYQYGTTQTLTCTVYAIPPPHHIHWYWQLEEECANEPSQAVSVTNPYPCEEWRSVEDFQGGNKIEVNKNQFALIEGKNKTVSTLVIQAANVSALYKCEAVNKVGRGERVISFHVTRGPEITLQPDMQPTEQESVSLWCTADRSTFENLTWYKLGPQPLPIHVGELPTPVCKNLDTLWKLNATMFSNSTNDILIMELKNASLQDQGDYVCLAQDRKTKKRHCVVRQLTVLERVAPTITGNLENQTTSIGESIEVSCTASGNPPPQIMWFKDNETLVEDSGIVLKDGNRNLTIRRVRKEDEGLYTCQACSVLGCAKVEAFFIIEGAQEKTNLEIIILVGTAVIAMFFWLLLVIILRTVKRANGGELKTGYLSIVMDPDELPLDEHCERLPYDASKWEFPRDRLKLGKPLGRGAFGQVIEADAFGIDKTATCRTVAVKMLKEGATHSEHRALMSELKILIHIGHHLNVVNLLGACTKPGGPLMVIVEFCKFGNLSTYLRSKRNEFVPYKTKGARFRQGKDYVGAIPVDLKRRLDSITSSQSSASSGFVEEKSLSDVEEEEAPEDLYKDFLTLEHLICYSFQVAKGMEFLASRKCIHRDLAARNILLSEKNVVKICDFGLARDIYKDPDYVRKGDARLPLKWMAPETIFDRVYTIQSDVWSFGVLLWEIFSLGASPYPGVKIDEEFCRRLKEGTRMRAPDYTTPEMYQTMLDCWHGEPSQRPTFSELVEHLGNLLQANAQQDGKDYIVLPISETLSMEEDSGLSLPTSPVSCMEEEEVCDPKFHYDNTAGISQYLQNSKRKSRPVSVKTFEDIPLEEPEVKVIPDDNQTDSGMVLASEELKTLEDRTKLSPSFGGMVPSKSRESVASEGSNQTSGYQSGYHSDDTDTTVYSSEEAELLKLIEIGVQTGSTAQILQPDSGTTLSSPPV

[14] = system: SW480; assay: cells; type: cell-based
[15] = system: SNU-C1; assay: cells; type: cell-based; settings: Homo sapiens
[16] = system: HT-29; assay: cells; type: cell-based; settings: Homo sapiens
[17] = system: Colo320; assay: cells; type: cell-based; settings: Homo sapiens
[18] = system: RKO; assay: cells; type: cell-based; settings: Homo sapiens, RKO
[19] = IC50 / EC50, NCI-H716, read-out: GLP 1 Secretion
[20] = GSK3b inhibitor pretreated, read-out: GSK3b inh pretreated_Viability ATP HCT116
[21] = IC50 / EC50, C2C12 beta-catenin translocation, read-out: Wnt Pathway
[22] = IC50 / EC50, endothelial tube area, ADSC/ECFC co-culture
[23] = basal, read-out: Basal_Viability ATP HCT116
[24] = IC50 / EC50, INS-1E, read-out: Insulin Secretion
[25] = basal, read-out: Basal_Viability ATP DLD-1
[26] = basal, read-out: Basal_Viability ATP SW480
[27] = S2 Table, module primary assay, 20 / 20.1 codes per legend, read-out: GLP 1 Secretion
[28] = HCT116 pretreated with GSK3b inhibitor, read-out: GSK3b inh pretreated_Viability ATP HCT116
[29] = S2 Table, 20 = no response at highest concentration
[30] = basal, HCT116, read-out: Basal_Viability ATP HCT116
[31] = S2 Table, module primary assay, 20 / 20.1 codes per legend, read-out: Insulin Secretion
[32] = basal, DLD-1, read-out: Basal_Viability ATP DLD-1
[33] = basal, SW480, read-out: Basal_Viability ATP SW480
[34] = Homo sapiens, HCT-116, read-out: GSK3b inh pretreated_Viability ATP HCT116
[35] = Homo sapiens, NCI-H716, read-out: GLP 1 Secretion
[36] = SNU-C1, read-out: Basal_Viability ATP SNU-C1
[37] = HT-29, read-out: Basal_Viability ATP HT-29
[38] = Rattus norvegicus, INS-1E, read-out: Insulin Secretion
[39] = Homo sapiens, DLD-1, read-out: Basal_Viability ATP DLD-1
[40] = Homo sapiens, SW480, read-out: Basal_Viability ATP SW480
[41] = Homo sapiens, HCT-116, read-out: Basal_Viability ATP HCT116

T1 sequence (P36888 27-993): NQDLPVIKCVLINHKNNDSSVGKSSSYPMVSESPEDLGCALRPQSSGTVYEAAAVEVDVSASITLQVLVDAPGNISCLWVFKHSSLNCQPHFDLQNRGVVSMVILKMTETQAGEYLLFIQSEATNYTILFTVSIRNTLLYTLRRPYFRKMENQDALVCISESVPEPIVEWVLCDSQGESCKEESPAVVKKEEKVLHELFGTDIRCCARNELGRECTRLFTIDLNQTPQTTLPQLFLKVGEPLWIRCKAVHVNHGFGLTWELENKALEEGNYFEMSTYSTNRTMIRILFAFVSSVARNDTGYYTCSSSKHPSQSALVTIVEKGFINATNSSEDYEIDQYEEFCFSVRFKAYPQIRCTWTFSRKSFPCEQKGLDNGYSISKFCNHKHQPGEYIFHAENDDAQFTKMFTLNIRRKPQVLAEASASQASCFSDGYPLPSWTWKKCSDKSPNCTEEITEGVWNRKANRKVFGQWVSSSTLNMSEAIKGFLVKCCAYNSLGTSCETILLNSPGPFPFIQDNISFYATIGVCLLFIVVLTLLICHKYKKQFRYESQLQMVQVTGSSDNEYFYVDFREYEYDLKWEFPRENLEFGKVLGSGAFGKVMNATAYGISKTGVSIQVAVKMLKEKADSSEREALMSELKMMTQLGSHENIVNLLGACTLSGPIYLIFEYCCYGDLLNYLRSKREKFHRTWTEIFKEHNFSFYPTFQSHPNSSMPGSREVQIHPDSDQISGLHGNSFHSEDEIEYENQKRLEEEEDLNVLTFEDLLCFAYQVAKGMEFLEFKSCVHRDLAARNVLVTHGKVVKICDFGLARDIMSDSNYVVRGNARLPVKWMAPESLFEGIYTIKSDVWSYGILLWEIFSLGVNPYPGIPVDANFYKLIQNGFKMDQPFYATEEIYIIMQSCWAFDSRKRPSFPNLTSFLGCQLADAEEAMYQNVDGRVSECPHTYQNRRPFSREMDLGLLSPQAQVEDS

With C[C@@H]1C[C@@H]([C@H](O)CC2CC(=O)NC(=O)C2)C(=O)[C@@H](C)C1 the IC50 [1] was over 20 µM, the EC50 [2, 19] was over 10 µM and the IC50 [3, 20] was 1.02 µM. It also gave an EC50 ([4]; IC50 / EC50) of over 10 µM, an EC50 [5, 21] of over 10 µM and an IC50 [6] of over 20 µM. It also gave an IC50 [7, 22] of 1.15 µM, an IC50 [8] of over 20 µM and an IC50 [9, 23] of 2.02 µM. For the same molecule, the EC50 [10, 24] was over 10 µM, the IC50 [11] was over 20 µM and the IC50 [12, 25] was 3.57 µM. For the same molecule, the IC50 [13] was over 20 µM and the IC50 [14, 26] was 3.04 µM.

COC(=O)c1nc(Cl)c(Cl)nc1N was tested, and the IC50 ([1]; kinase assay) was 2.86 µM, the EC50 [2, 27] was over 10 µM and the IC50 [3, 28] was 0.296 µM. For the same molecule, the EC50 [4, 29] was 0.511 µM, the EC50 ([5]; read-out: Wnt Pathway) was 0.157 µM and the IC50 ([6]; kinase assay) was over 20 µM. For the same molecule, the IC50 [7] was 0.865 µM, the IC50 ([8]; kinase assay) was over 20 µM and the IC50 [9, 30] was 0.327 µM. The EC50 [10, 31] was over 10 µM, the IC50 ([11]; kinase assay) was over 20 µM and the IC50 [12, 32] was 0.835 µM. It also gave an IC50 ([13]; kinase assay) of over 20 µM and an IC50 [14, 33] of 0.88 µM.

In the case of Cc1cc(O)c2ccccc2c1O [2-Methyl-1,4-naphthalenediol], the IC50 [1] is reported as over 20 µM, the EC50 [2, 19] is reported as over 10 µM and the IC50 [3, 20] is reported as 9.45 µM. It also gave an EC50 ([4]; IC50 / EC50) of over 10 µM, an EC50 [5, 21] of 1.75 µM and an IC50 [6] of over 20 µM. The IC50 [7, 22] was 4.89 µM, the IC50 [8] was 19.1 µM and the IC50 [9, 23] was 1.49 µM. The EC50 [10, 24] was over 10 µM, the IC50 [11] was over 20 µM and the IC50 [12, 25] was 10 µM. For the same molecule, the IC50 [13] was 18.4 µM and the IC50 [14, 26] was 7.08 µM.

Molecule C[n+]1c2cc(N)ccc2cc2ccc(N)cc21 [Acriflavinium chloride] has an IC50 ([1]; kinase assay) of over 20 µM, an EC50 [2, 27] of over 10 µM and an IC50 [3, 28] of 4.36 µM. It also gave an EC50 [4, 29] of over 10 µM, an EC50 ([5]; read-out: Wnt Pathway) of 1.6 µM and an IC50 ([6]; kinase assay) of over 20 µM. For the same molecule, the IC50 ([7]; S2 Table, module primary assay, 20 = no response at highest concentration, 20.1 = inactive in single concentration testing) was over 10 µM, the IC50 ([8]; kinase assay) was over 20 µM and the IC50 [9, 30] was 10.3 µM. The EC50 [10, 31] was over 10 µM, the IC50 ([11]; kinase assay) was 6.57 µM and the IC50 [12, 32] was 4.03 µM. For the same molecule, the IC50 ([13]; kinase assay) was over 20 µM and the IC50 [14, 33] was 1.26 µM.

COc1ccc(-c2nc3ccc(C4=NNC(=O)CC4C)cc3[nH]2)cc1 (centres unmarked) [Pimobendan] gave an IC50 [1] of 5.13 µM, an EC50 ([2]; Homo sapiens, IC50 / EC50, NCI-H716, read-out: GLP 1 Secretion) of over 10 µM and an IC50 [3, 34] of over 20 µM. For the same molecule, the EC50 ([4]; Homo sapiens, IC50 / EC50) was over 10 µM, the IC50 [6] was over 20 µM and the IC50 ([7]; Homo sapiens, IC50 / EC50, endothelial tube area, ADSC/ECFC co-culture) was 2.89 µM. The IC50 [8] was over 20 µM, the IC50 ([9]; Homo sapiens, HCT-116, basal, read-out: Basal_Viability ATP HCT116) was 16 µM and the EC50 ([10]; Rattus norvegicus, IC50 / EC50, INS-1E, read-out: Insulin Secretion) was over 10 µM. It also gave an IC50 [11] of over 20 µM, an IC50 ([12]; Homo sapiens, DLD-1, basal, read-out: Basal_Viability ATP DLD-1) of over 20 µM and an IC50 [13] of over 20 µM. It also gave an IC50 ([14]; Homo sapiens, SW480, basal, read-out: Basal_Viability ATP SW480) of over 20 µM.

O=c1[nH]c(=O)n([C@H]2C[C@H](O)[C@@H](CO)O2)cc1C(F)(F)F [Trifluridine] showed an IC50 ([1]; kinase assay) of over 20 µM, an EC50 [2, 35] of over 10 µM and an IC50 [3, 34] of 1.25 µM. It also gave an EC50 ([4]; Homo sapiens) of over 10 µM, an IC50 [15, 36] of over 20 µM and an IC50 [16, 37] of over 20 µM. It also gave an IC50 ([6]; kinase assay) of over 20 µM, an IC50 ([17]; COLO 320, read-out: Basal_Viability ATP Colo 320) of over 20 µM and an IC50 ([8]; kinase assay) of over 20 µM. It also gave an EC50 [10, 38] of over 10 µM, an IC50 ([11]; kinase assay) of over 20 µM and an IC50 [12, 39] of over 20 µM. For the same molecule, the IC50 ([13]; kinase assay) was over 20 µM and the IC50 [14, 40] was over 20 µM.

With CC(C)C[C@H](NC(=O)[C@H](Cc1ccccc1)NC(=O)c1cnccn1)B(O)O [bortezomib, reference compound] the IC50 [1] was over 20 µM, the EC50 ([2]; Homo sapiens, NCI-H716, read-out: GLP1 sec. EC50) was over 10 µM and the IC50 ([3]; Homo sapiens, HCT-116, 72 h, read-out: HCT-116 (GSK3β) viab. IC50) was 0.002 µM. The IC50 [3, 34] was 0.00241 µM, the EC50 ([4]; Homo sapiens) was over 10 µM and the IC50 ([18]; 72 h, read-out: RKO viab. IC50) was 0.008 µM. It also gave an IC50 ([18]; read-out: Basal_Viability ATP RKO) of 0.0081 µM, an IC50 ([15]; SNU-C1, 72 h, read-out: SNU-C1 viab. IC50) of 0.003 µM and an IC50 [15, 36] of 0.0032 µM. The IC50 ([16]; HT-29, 72 h, read-out: HT-29 viab. IC50) was 0.003 µM, the IC50 [16, 37] was 0.00315 µM and the IC50 [6] was over 20 µM. The IC50 ([17]; COLO 320, 72 h, read-out: Colo320 viab. IC50) was 2.8 µM, the IC50 [8] was over 20 µM and the IC50 ([9]; Homo sapiens, HCT-116, 72 h, read-out: HCT-116 viab. IC50) was 0.004 µM. For the same molecule, the IC50 [9, 41] was 0.00365 µM, the EC50 ([10]; Rattus norvegicus, INS-1E, read-out: Ins. sec. EC50) was over 10 µM and the IC50 [11] was over 20 µM. The IC50 ([12]; Homo sapiens, DLD-1, 72 h, read-out: DLD-1 viab. IC50) was 0.006 µM, the IC50 [12, 39] was 0.00636 µM and the IC50 [13] was over 20 µM. The IC50 ([14]; Homo sapiens, SW480, 72 h, read-out: SW480 viab. IC50) was 0.005 µM and the IC50 [14, 40] was 0.00513 µM.

CCC1=C[C@@H]2CN(C1)Cc1c([nH]c3ccccc13)[C@@](C(=O)OC)(c1cc3c(cc1OC)N(C)[C@H]1[C@@](O)(C(=O)OC)[C@H](OC(C)=O)[C@]4(CC)C=CCN5CC[C@]31[C@@H]54)C2 [vinorelbine] showed an IC50 [1] of over 20 µM, an EC50 [2, 35] of over 10 µM and an IC50 [3, 34] of 0.0667 µM. For the same molecule, the EC50 ([5]; Mus musculus, C2C12, read-out: Wnt Pathway) was 0.0089 µM, the IC50 [6] was over 20 µM and the IC50 ([7]; Homo sapiens) was 0.0055 µM. For the same molecule, the IC50 [8] was over 20 µM, the IC50 [9, 41] was 0.0964 µM and the EC50 [10, 38] was over 10 µM. It also gave an IC50 [11] of over 20 µM, an IC50 [12, 39] of 0.214 µM and an IC50 [13] of over 20 µM. It also gave an IC50 [14, 40] of 0.342 µM.
